Measurements published in US20090099216A1, “NOVEL ADENINE COMPOUND” (priority 2005, published 2009).

biological target: T1, Human TLR7 (Homo sapiens, UniProt Q9NYK1); test: Human TLR7 reporter assay (NF-kB-SEAP) in HEK293 cells; format: cell-based; details: hTLR7/seap-293 HEK293 cells, 20 hours incubation, absorbance 405 nm, read-out: human TLR7 binding activity (EC50)
T1 construct: expressed in transfected cells; host or cells: HEK293 (hTLR7/seap-293), stably carrying the TLR7 plasmid and the NF-kB-SEAP reporter plasmid
T1 sequence (Q9NYK1 27-1049): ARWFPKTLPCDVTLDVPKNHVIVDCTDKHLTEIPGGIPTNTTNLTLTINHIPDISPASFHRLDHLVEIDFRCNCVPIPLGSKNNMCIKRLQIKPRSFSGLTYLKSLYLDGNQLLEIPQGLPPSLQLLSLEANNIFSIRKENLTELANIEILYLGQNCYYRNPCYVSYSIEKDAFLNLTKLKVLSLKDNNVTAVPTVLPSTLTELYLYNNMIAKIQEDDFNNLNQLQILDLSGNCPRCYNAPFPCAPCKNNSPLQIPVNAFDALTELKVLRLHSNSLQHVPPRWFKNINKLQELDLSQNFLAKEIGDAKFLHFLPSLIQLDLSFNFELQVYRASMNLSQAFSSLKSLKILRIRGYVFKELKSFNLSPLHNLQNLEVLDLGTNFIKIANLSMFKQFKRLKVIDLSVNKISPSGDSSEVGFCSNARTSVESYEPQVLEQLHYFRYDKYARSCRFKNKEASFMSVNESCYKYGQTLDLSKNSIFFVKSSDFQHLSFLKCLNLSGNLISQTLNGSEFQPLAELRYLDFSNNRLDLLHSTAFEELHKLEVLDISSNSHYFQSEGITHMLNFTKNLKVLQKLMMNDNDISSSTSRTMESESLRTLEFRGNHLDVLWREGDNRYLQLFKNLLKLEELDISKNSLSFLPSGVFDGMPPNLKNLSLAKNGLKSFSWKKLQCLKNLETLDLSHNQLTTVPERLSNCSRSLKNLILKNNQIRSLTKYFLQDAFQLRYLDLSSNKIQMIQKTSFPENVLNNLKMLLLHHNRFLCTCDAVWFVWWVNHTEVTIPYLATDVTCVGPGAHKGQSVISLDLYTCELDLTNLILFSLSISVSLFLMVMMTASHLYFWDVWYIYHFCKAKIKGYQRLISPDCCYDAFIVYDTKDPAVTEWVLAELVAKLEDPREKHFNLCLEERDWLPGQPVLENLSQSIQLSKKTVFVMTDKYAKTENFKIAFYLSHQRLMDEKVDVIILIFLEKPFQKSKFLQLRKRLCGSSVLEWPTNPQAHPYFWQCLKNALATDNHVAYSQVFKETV
Procedure: Human TLR7 Reporter Assay
Human TLR7 or rat TLR7 plasmid and reporter plasmid (NF-kB-SEAP) stably-induced HEK293 cells were suspended in DMEM media (10% FBS, 1% NEAA, 10 ug/mL blastocidin S HCl, 100 ug/mL Zeocin), and the suspension was seeded in 90 μl/well on 96 well plate (hTLR^7/seap-293: 20000 cells/well, rTLR7/seap-293: 25000 cells/well).
To the cells seeded on 96 well plate was added in 10 μl/well a test compound wherein DMSO stock solution (2 μl) was hundredfold diluted with medium (200 μl) (final concentration; 1 nM-10 μM, common ratio 3). The mixture was stirred tapping in the side of the plate, and then incubated for 20 hours in CO2 incubator. To the cells stimulated by a test compound was added a substrate for reporter assay (substrate for SEAP, pNPP) by 50 μl/well. 10 minutes after the addition of substrate, a quenching solution (4N NaOH) was added by 50 μl/well, and the enzymatic reaction was quenched. Top seal A was attached on the plate, and absorbance was measured by microplate reader (405 nm).

Question: With `CCCCOc1nc(N)c2[nH]c(=O)n(CCNCC(=O)OC)c2n1` [Example 1, Methyl N-[2-(6-amino-2-butoxy-7,8-dihydro-8-oxo-9H-purin-9-yl)-ethyl]glycinate] as the compound, how does the EC50 read?
Answer: The EC50 was 290 nM.

Question: For `CCCCOc1nc(N)c2[nH]c(=O)n(CCN[C@@H](CCCCN)C(=O)OC)c2n1` [Example 7, Methyl N^2-[2-(6-amino-2-butoxy-8-oxo-7,8-dihydro-9H-purin-9-yl)ethyl]-L-lysinate], which EC50 is on record?
Answer: Its EC50 is 1710 nM.

Question: How did the EC50 turn out when `CCCCOc1nc(N)c2[nH]c(=O)n(CCN[C@@H](CC(=O)OC)C(=O)OC)c2n1` [Example 6, Dimethyl N-[2-(6-amino-2-butoxy-8-oxo-7,8-dihydro-9H-purin-9-yl)ethyl]-L-aspartate] was run?
Answer: Its EC50 is 881 nM.
